From paper PMC8712301, “Novel CYP11B-ligand [^123/131I]IMAZA as promising theranostic tool for adrenocortical tumors: comprehensive preclinical characterization and first clinical experience” (European Journal of Nuclear Medicine and Molecular Imaging, 2021)
Read-outs that look alike come from different tables or passages of the source.

Tests used:
[1] = Metabolic inactivation by human liver microsomes in vitro (radio-HPLC); format: in vitro ADME; details: for half-life at 0.17 MBq/ml: human, pH 7.2, 125I-labeled compound, liver microsomes 0.2 mg/ml, NADPH, 37 °C, mean ± S.D., read-out: In vitro T1/2 in human liver microsomes; for Metabolic stability compared with [125I]IMTO: radio-HPLC
Procedure: Metabolic degradation was determined by co-incubation of the tracers with human liver microsomes (Sigma, M0317). Experiments were conducted in triplicates. Incubation mixtures consisted of liver microsomes (0.2 mg/ml), the respective ^125I-labeled compound (0.1 MBq), MgCl2 (3.3 mM), and NADPH (1.3 mM) in a total volume of 0.6 ml K3PO4 puffer (25 mM, pH 7.2). The reaction was started with the addition of NADPH and incubated at 37 °C. At predefined time points, aliquots were removed, and the reaction was terminated by adding 160 µL ice-cold methanol. After centrifugation (5000 × g, 4 °C for 4 min), the supernatant was analyzed by radio-HPLC (see experimental details and Supplementary Fig. 1 in Supplement).

human CYP11B2 = biological target: T1, human CYP11B2 (Homo sapiens, UniProt P19099); test: Inhibition of CYP11B2 in stably transfected Y1-hsCyp11B2 cells; format: cell-based
T1 construct: expressed in transfected cells; host or cells: murine adrenocortical cancer cell line Y1 (Y1-hsCyp11B2, stably transfected)
T1 sequence (P19099 25-503): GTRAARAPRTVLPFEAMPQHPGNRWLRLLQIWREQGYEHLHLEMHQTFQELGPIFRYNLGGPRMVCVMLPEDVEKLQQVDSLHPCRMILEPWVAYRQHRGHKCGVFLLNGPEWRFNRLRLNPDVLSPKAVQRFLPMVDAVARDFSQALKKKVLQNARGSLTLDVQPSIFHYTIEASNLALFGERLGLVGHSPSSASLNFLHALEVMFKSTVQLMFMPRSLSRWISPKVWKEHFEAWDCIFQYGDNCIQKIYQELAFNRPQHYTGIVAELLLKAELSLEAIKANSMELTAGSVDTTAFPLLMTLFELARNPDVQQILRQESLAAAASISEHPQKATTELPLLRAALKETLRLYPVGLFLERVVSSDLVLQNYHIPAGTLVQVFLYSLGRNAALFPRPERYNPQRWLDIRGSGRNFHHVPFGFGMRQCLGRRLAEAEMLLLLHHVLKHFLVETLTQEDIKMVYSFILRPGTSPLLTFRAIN
Procedure: (§1) The human adrenocortical cell line NCI-H295 and the murine adrenocortical cancer cell line Y1 transfected with either human CYP11B1 or CYP11B2 were used for determination of IC50 values as already described.
(§2) IC50 values were calculated from all values using the program GraphPad Prism5®. All results are expressed as mean ± standard deviation.

human CYP11B1 = biological target: T2, human CYP11B1 (Homo sapiens, UniProt P15538); test: Inhibition of CYP11B1 in stably transfected Y1-hsCyp11B1 cells; format: cell-based
T2 construct: expressed in transfected cells; host or cells: murine adrenocortical cancer cell line Y1 (Y1-hsCyp11B1, stably transfected)
T2 sequence (P15538 25-503): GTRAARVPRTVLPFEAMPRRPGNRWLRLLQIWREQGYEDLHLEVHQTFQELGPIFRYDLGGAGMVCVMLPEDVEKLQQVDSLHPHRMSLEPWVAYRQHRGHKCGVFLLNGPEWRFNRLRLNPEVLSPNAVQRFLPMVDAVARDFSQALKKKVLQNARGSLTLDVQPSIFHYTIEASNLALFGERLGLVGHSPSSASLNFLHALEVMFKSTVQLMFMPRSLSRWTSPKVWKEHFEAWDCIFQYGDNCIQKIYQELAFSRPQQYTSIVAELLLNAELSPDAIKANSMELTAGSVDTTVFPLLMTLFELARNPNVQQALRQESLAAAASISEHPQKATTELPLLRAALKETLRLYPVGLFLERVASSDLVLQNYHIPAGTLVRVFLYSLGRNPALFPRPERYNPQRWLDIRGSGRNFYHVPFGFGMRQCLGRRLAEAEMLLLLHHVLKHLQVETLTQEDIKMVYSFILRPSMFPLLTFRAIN
Procedure: as §1, §2

NCI-H295 cells = test: Steroid secretion in NCI-H295 cells after 48-h incubation; format: cell-based, human; details: for Production of the investigated hormones: higher concentrations; for Upstream steroids 17-OH-progesterone and androstenedione: lower concentrations 0.1-10 nM
Procedure: as §1
Fig. 2 Steroid secretion in NCI-H295 cells after 48-h incubation with IMTO, IMAZA, 3-tetrahydrofurylester, and 2,2-difluoroethylester (0.1–10,000 nM). NCI-H295 cells were incubated for 48 h with the four compounds. Each experiment was performed in triplicates. At the end of the incubation period, steroid hormones (cortisol, aldosterone, 17-OH-P, and androstenedione) were determined in the cell supernatant by commercially available assays

[2] = Lipophilicity estimated from HPLC retention times
advanced ACC [3] = test: Diagnostic imaging and biokinetics with [123I]IMTO and [123I]IMAZA in patients with advanced ACC; format: in vivo, human; details: kinetics recalculated for 131I from 123I diagnostics in patients
Procedure: Three patients (#1, #2, and #3) were investigated by [^123I]IMAZA (administered doses, 117, 163, and 182 MBq, respectively) and subsequently by [^123I]IMTO (176, 169, and 146 MBq, respectively). The time interval between the imaging studies was at least 5 days. Scintigraphic imaging was performed using a Siemens Symbia dual-head gamma camera equipped with medium-energy parallel-hole collimators. Activity concentration was measured in whole blood samples drawn at 2 min, 5 min, 15 min, 1 h, 2.5 h, 5 h, and 23 h after the administration. Plasma activity was analyzed in patient #1.

metastatic ACC [4] = test: Dosimetry and endoradiotherapy with [131I]IMAZA in a patient with metastatic ACC; format: in vivo, human; details: patient #1, derived from diagnostics with [123I]IMTO
Text: Patient #1 had experienced disease progression with a more than fourfold increase in their dominant lesions within only 4 months after a phase of disease stabilization after standard treatment with mitotane and eight courses of combination chemotherapy with etoposide, doxorubicin, and cisplatin. They received therapeutic doses with 28.2 GBq [^131I]IMAZA 1 month and with 30.5 GBq [^131I]IMAZA 7 months after the evaluation with [^123I]IMAZA. Prior to the first treatment, the absorbed dose to the blood was measured with a tracer activity of 72 MBq [^131I]IMAZA as a surrogate for the exposure of the dose-limiting organ, the red bone marrow. The absorbed dose to the blood was estimated from assessments of the activity kinetics in total body and blood up to 48 h when the mean activity concentrations had dropped to 5% of the values at 5 min after the administration in the total body and to 1% in the blood. During therapy, the total body activity retention was measured with a survey meter in the ceiling over the patient’s bed. Gamma camera whole body scans accompanied by blood sampling were acquired starting 4 days post-administration after the first and 2 days after the second therapy until dismissal. SPECT/CT imaging was performed after 4 and 5 days, respectively.
Tumor evaluation was performed by [^18F]FDG PET/CT at baseline and 2, 5, 8, 11, 14, and 21 months after administration of the first treatment dose. Subsequently, the patient declined further follow-up imaging or additional therapeutic interventions.

metastatic ACC [5] = test: as above; format: in vivo, human; details: patient #1, derived from diagnostics with [123I]IMTO; remark: listed apart in the source
advanced ACC [6] = test system: advanced ACC; parameters: method as in PMID 15898346, PMID 29452402; details: advanced ACC ref 10, 11; cited from earlier work

`COC(=O)c1cncn1[C@H](C)c1ccc(I)cc1` [Compound 1, (R)-1-[1-(4-Iodophenyl)ethyl]-1H-imidazole-5-carboxylic acid methyl ester] showed a half-life at 0.17 MBq/ml ([1]; human liver microsomes) of 7.3 ± 3.6 min and a melting point of 72 to 74 °C.
With `C[C@H](c1ccc(I)cc1)n1cncc1C(=O)O` [Compound 2, (R)-1-[1-(4-Iodophenyl)ethyl]-1H-imidazole-5-carboxylic acid] the IC50 (human CYP11B2) was 611 ± 1040 nM and the melting point was > 250 °C (dec.).
For `C[C@H](c1ccc(I)cc1)n1cncc1C(=O)OC1CCOC1` (stereo partly drawn) [Compound 3, (R)-1-[1-(4-Iodophenyl)ethyl]-1H-imidazole-5-carboxylic acid 3-tetrahydrofurylester], the IC50 (human CYP11B1) was 5.3 ± 5.9 nM, the IC50 (human CYP11B2) was 2.9 ± 1.6 nM and the “Metabolic stability compared with [125I]IMTO” value ([1]; human liver microsomes) was “nearly equal or even better metabolic stability”. The half-life at 0.17 MBq/ml [1] was 7.4 ± 2.8 min, the “Production of the investigated hormones” value (NCI-H295 cells) was “completely stopped” and the “Upstream steroids 17-OH-progesterone and androstenedione” value (NCI-H295 cells) was “accumulation of the upstream steroids 17-OH-progesterone and androstenedione was observed”. For the same molecule, the “Lipophilicity compared with IMTO” value [2] was “comparable”.
In the case of `C[C@H](c1ccc(I)cc1)n1cncc1C(=O)OCC(F)F` [Compound 4, (R)-1-[1-(4-Iodophenyl)ethyl]-1H-imidazole-5-carboxylic acid 2,2-difluoroethylester], the IC50 (human CYP11B1) is reported as 0.3 ± 0.4 nM, the IC50 (human CYP11B2) is reported as 4.5 ± 0.5 nM and the “Metabolic stability compared with [125I]IMTO” value ([1]; human liver microsomes) is reported as “nearly equal or even better metabolic stability”. For the same molecule, the half-life at 0.17 MBq/ml [1] was 7.5 ± 0.87 min, the “Production of the investigated hormones” value (NCI-H295 cells) was “completely stopped” and the “Upstream steroids 17-OH-progesterone and androstenedione” value (NCI-H295 cells) was “accumulation of the upstream steroids 17-OH-progesterone and androstenedione was observed”. For the same molecule, the “Lipophilicity compared with IMTO” value [2] was “comparable”.
For `C[C@H](c1ccc(I)cc1)n1cncc1C(=O)N1CCC1` [Compound 5, (R)-1-[1-(4-Iodophenyl)ethyl]-1H-imidazole-5-carboxylic acid azetidinylamide], the IC50 (human CYP11B1; stably transfected Y1-hsCyp11B1 cells, substrate deoxycortisol (1 µM), mean of at least three experiments in duplicates, read-out: IC50 CYP11B1) was 3.2 ± 0.1 nM, the IC50 (human CYP11B2; stably transfected Y1-hsCyp11B2 cells, substrate 11-deoxycorticosterone (1 µM), mean of at least three experiments in duplicates, read-out: IC50 CYP11B2) was 1.2 ± 0.1 nM and the half-life at 0.17 MBq/ml ([1]; human liver microsomes) was 26.1 ± 5.5 min. For the same molecule, the “Production of the investigated hormones” value (NCI-H295 cells) was “completely stopped”, the “Upstream steroids 17-OH-progesterone and androstenedione” value (NCI-H295 cells) was “accumulation of the upstream steroids 17-OH-progesterone and androstenedione was observed” and the “Lipophilicity compared with IMTO” value [2] was “lower”.
For `COC(=O)c1cncn1C(C)c1ccc([131I])cc1` (stereo not shown) [[^131I]IMTO], the “Mean blood absorbed dose” value (advanced ACC [3]) was 0.11 Gy/GBq, the Blood absorbed dose (metastatic ACC [4]) was 0.17 Gy/GBq and the “Residence time per liter of whole blood” value (metastatic ACC [5]) was 0.55 h.
For `Clc1ccc(C(c2ccccc2Cl)C(Cl)Cl)cc1` (stereo not shown) [mitotane], the Response rate (advanced ACC [6]) is listed as at most 24%.
